# Patent publication US20230165978A1, “Composition and A Method For Diagnosing And Treating Bacterial Infection” (Hong Kong Centre for Cerebro-Cardiovascular Health …, priority 2021, published 2023)
# Where two headings read alike, the source gives them in different places.
# Assays:
# [1] = test system: UPEC; experiment: Fluorescent imaging of bacteria by TBPP; type: cell-based, uropathogenic E. coli (UPEC) strain UTI89
# Method: A single colony of UPEC on solid culture medium was transferred to 5 mL of Luria-Bertani (LB) medium and incubated at 37° C. for overnight. After reaching the logarithmic phase, bacteria were harvested by centrifuging at 10000 g for 3 min. After removing the supernatant, bacteria were diluted in ABTGC (ABT minimal medium supplemented with […]) to 1×10^5/mL. 300 μL of bacteria solution were added to the culture dish. Then, 300 μL dye solution in saline at appropriate concentration was added into the culture dish for 1 h and directly imaged by Leica TCS SP8 MP confocal microscope (Germany).
# [2] = ROS generation test with DCFH-DA under white light; conditions: photosensitizer 10 μM, DCFH-DA 40 μM
# Method: Dichlorodihydrofluorescein diacetate (DCFH-DA, Sigma-Aldrich #D6665-5G, 76-54-0, China) was used as the ROS indicator. 40 μL of DCFH-DA stock solution (1 mM) was added into 2 mL of different photosensitizers suspension (10 μM) including TBPPs and chlorin e6 (Sigma-Aldrich #COM448659756-100MG, QC-6466, USA). Then white light ([…]) was used to irradiate, and the emission of DCFD-DA at 525 nm was recorded at various irradiation times.
# [3] = Photophysical properties (absorption and photoluminescence spectra); type: physicochemical
# Method: All chemicals and reagents were commercially available and used as received without further purification. ^1H and ^13C NMR spectra were measured on a Bruker ARX 400 NMR spectrometer using CDCl3 and DMSO-d6 as solvents, and tetramethylsilane (TMS; 6=0 ppm) was chosen as the internal reference. High-resolution mass spectra (HRMS) were obtained on a Finnigan MAT TSQ 7000 mass spectrometer system operated in a matrix-assisted laser desorption and ionization-time-of-flight (MALDI-TOF) mode. Absorption spectra were measured on a Milton Roy Spectronic 3000 array spectrophotometer. Steady-state photoluminescence (PL) spectra were measured on a PerkinElmer spectrofluorometer LS 55.
# [4] = test system: UMUC-3 cell lines; experiment: Drug treatments of cancer cell clusters in 3D model with bacteria outside tissue; cell viability test (Hoechst/Calcein-AM); type: cell-based; conditions: Homo sapiens, UMUC3, 24 h; for IC50: 3D model with bacteria outside tissue, 24 hrs of incubation, read-out: IC50 of doxorubicin for cancer cells
# Method: 70% (v/v) ethanol (EtOH; UNI-CHEM) was added to channels to sterilize the platform and remove air bubbles. 1× phosphate-buffered saline (PBS; Gibco, #10010049, USA) was used to remove residual EtOH, and the microwell layer was then coated with 50 μL of 2.5% bovine serum albumin (v/v) (BSA) (Sigma-Aldrich, #A9418-5G, Germany) to prevent cell adhesion to the channels. The capacity of each channel was 150 μL. UMUC-3 cell clusters in the microchannels could be stained in situ with Hoechst dye (Invitrogen, #H1399, USA) for 30 min to visualize cell nuclei or biofilm. Imaging and downstream analysis were carried out in situ after 1 h, 9 h, and 24 h of infection. UMUC-3 cell clusters without bacteria were used as negative controls. The bacterial suspension was centrifuged for 10,000 rpm. LB supernatant was removed and replaced with antibiotic-free MEM a (10% supplemented with FBS) at the required multiplicity of infection (MOI) rates (500:1 or 1:1). Control groups corresponding to 0 h time points were obtained before the introduction of bacteria.
# Nuclear dye Hoechst (blue) and Calcein-AM (green) Invitrogen, #C3100MP, USA) were added to the channels at a final concentration of 20 μM. Clusters were imaged after 30 min incubation at 37° C. Using ImageJ for analysis. We enumerated only cancer cells within the area range of 25-250 μm^2 and circularity 0.3-1.0 to ensure that smaller bacteria were excluded from the count.
# UMUC-3 cells were seeded into a PIEB device at 35×10^3 cells/channel concentration and cultured at 37° C. overnight. Then UPEC was suspended in PBS and added into each channel at the MOI of 1:1. Then the bacteria and cells were incubated at 37° C. for 1 h in the device. TBPP was added into the channel and followed by light treatment for 30 mins. The medium was replaced by fresh RPMI with DOX (Sigma-Aldrich, #D1515-10MG, 25316-40-9, China). After 24 h incubation, cells were dyed with Hoechst and Calcein AM for imaging.
# [5] = test system: human bladder carcinoma cell line (UMUC-3); experiment: Cancer cell staining by TBPP; type: cell-based; conditions: TBPP 1 μM
# Method: The human bladder carcinoma cell line UMUC-3 (CRL-1749, ATCC) were cultured in modified Minimum Essential Medium Alpha (MEM a; Gibco, #12561049, USA) supplemented with 10% (v/v) fetal bovine serum (FBS; Gibco, #10270106, USA) and 1% (v/v) penicillin-streptomycin (Gibco, #15140122, USA) at 37° C. with 5% CO2 in a humidified environment. Cells were cultured in sterile T25 or T75 flasks (Jet BIOFIL, China), with growth media replaced every 48 h. Cultures were passaged at 80% confluence.
# […] of TBPP and 10 μM of Calcein-AM were added to the channels. Clusters were then imaged after 60 min incubation at 37° C. Z-stack were recorded via confocal microscope.
Compound,"fluorescent signal of UPEC biofilm ([1]; TBPP 1 μM, biofilm compared with planktonic bacteria)","NIR fluorescent signal on UPEC (monolayer model) ([1]; TBPP 10 μM, 1 h to 24 h)",ROS generation (change of DCFH-DA fluorescence I/I0 with irradiation time) [2],Stokes shift (Δv) [3] [nm],"absorption maximum ([3]; in DMSO, 10 μM) [nm]","emission maximum ([3]; in DMSO, 10 μM) [nm]",viability at 5 µM ([4]; read-out: viability of cancer cells) [%],fluorescence in cancer cell staining [5],IC50 ([4]; doxorubicin alone) [µM],IC50 ([4]; doxorubicin combined with TBPP) [µM]
"C[N+](C)(C)CCC[n+]1ccc(-c2ccc(-c3ccc(N(c4ccccc4)c4ccccc4)cc3)c3nsnc23)cc1.[Br-].[Br-] [TBPP, 4-(7-(4-(diphenylamino)phenyl)benzo[c][1,2,5]thiadiazol-4-yl)-1-(3-(trimethylammonio)propyl)pyridin-1-ium bromide]",much higher signal than the planktonic bacteria,targeting ability to UPEC,"much greater change than commercial photosensitizer, Ce6",198,492,690,~60,negligible fluorescence,,
COc1cccc2c1C(=O)c1c(O)c3c(c(O)c1C2=O)C[C@@](O)(C(=O)CO)C[C@@H]3O[C@H]1C[C@H](N)[C@H](O)[C@H](C)O1 [doxorubicin],,,,,,,,,8,5
